Measured values published in patent US5869602A, “Peptide derivatives” (Novo Nordisk A/S, priority 1995, dated 1999).
Non-standard residues stand in square brackets, D forms with d. Residues, ends and D or L forms follow the SMILES beside them. *: point of attachment. Myristoyl = CCCCCCCCCCCCCC(=O)*; Nle = CCCC[C@H](N)C(=O)O; For = O=C*

Experiments:
[1] = Determination of lipophilicity relative to human insulin (k'rel) by RP-HPLC; type: physicochemical; conditions: pH 7.3
Experimental: The lipophilicity of peptides and peptide derivatives relative to human insulin, k'rel, was measured on a LiChrosorb RP18 (5 μm, 4×250 mm) HPLC column by isocratic elution at 40° C. using mixtures of A) 0.1M sodium phosphate buffer, pH 7.3, containing 10% acetonitrile, and B) 50% acetonitrile in water as eluents. The elution was monitored by following the UV absorption of the eluate at 214 nm. Void time, t0, was found by injecting 0.1 mM sodium nitrate. Retention time for human insulin. tinsulin, was adjusted to at least 2t0 by varying the ratio between the A and B solutions. k'rel =(tderivate -t0)/(tinsulin -t0).

rabbits = assay: Blood glucose in rabbits pre-treated with Insulin Actrapid, after SC injection; type: in vivo
Experimental: The resulting solution was sterilized by filtration and transferred to a vial.
Blood was sampled at times: -60, 0, 15, 30, 60, 120, 180 and 240 min, and the glucose concentration determined by the hexokinase method.

[2] = LiChrosorb RP18 HPLC, isocratic elution, 40° C.

In the case of CCCCCCCCCCCCCC(=O)NCCCC[C@H](NC(=O)[C@H](Cc1ccc(O)cc1)NC(=O)[C@H](CCCC)NC(=O)[C@H](Cc1ccccc1)NC(=O)[C@H](CC(C)C)NC(=O)[C@H](CCCC)NC=O)C(=O)O [Example 1, For-Nle-Leu-Phe-Nle-Tyr-Lys(N^ε -tetradecanoyl)-OH] (For-[Nle]LF[Nle]YK(Myristoyl)-OH), the “lipophilicity relative to human insulin, k'rel” value [1, 2] is reported as 8.2×10^3.

For CCCCCCCCCCCCCC(=O)NCCCC[C@H](NC(=O)[C@H](Cc1ccc(O)cc1)NC(=O)[C@@H](NC(=O)[C@H](Cc1ccccc1)NC(=O)[C@H](Cc1ccccc1)NC(=O)[C@H](Cc1c[nH]cn1)NC(=O)[C@H](Cc1ccccc1)NC(=O)[C@@H]1CCCN1C(=O)[C@H](Cc1c[nH]cn1)NC(=O)[C@@H]1CCCN1)C(C)C)C(=O)O [Example 3] (H-PHPFHFFVYK(Myristoyl)-OH), the “lipophilicity relative to human insulin, k'rel” value [1, 2] was 5.3×10^3.

In the case of CCCC[C@H](NC=O)C(=O)N[C@@H](CC(C)C)C(=O)N[C@@H](Cc1ccccc1)C(=O)N[C@@H](CCCC)C(=O)N[C@@H](Cc1ccc(O)cc1)C(=O)N[C@@H](CCCCN)C(=O)O [For-Nle-Leu-Phe-Nle-Tyr-Lys-OH] (HELM PEPTIDE1{[O=C[*:2]].[Nle].L.F.[Nle].Y.K}$$$$V2.0), the “lipophilicity relative to human insulin, k'rel” value [1] is reported as 2.3.

With CC(C)C[C@H](NC(=O)[C@H](Cc1ccccc1)NC(=O)CNC(=O)[C@@H](C)NC(=O)[C@@H](N)Cc1ccc(O)cc1)C(=O)N[C@@H](CCCCN)C(=O)O [H-Tyr-D-Ala-Gly-Phe-Leu-Lys-OH] (HELM PEPTIDE1{Y.[dA].G.F.L.K}$$$$V2.0) the “lipophilicity relative to human insulin, k'rel” value [1, 2] was 3.0×10^-3.

With H-PHPFHFFVYK-OH the “lipophilicity relative to human insulin, k'rel” value [1, 2] was 2.3×10^2.

For “Lys^30 (Nε-decanoyl) glucagon [Example 6]”, the blood glucose concentration (rabbits; 0 min (time of SC injection of test substance)) was 51 mg glucose/100 ml, the blood glucose concentration (rabbits; 15 min after SC injection) was 79 mg glucose/100 ml and the blood glucose concentration (rabbits; 30 min after SC injection) was 93 mg glucose/100 ml. It also gave a blood glucose concentration (rabbits; 60 min after SC injection) of 114 mg glucose/100 ml, a blood glucose concentration (rabbits; 120 min after SC injection) of 112 mg glucose/100 ml and a blood glucose concentration (rabbits; 180 min after SC injection) of 116 mg glucose/100 ml. The blood glucose concentration (rabbits; 240 min after SC injection) was 110 mg glucose/100 ml, the blood glucose concentration (rabbits; -60 min (time of 2 IU Insulin Actrapid, before test substance)) was 94 mg glucose/100 ml and the “blood glucose raising effect compared with glucagon” value (rabbits; SC, conclusion from the table) was “prolonged action”.
